Results published in patent US10336702B2, “Pharmaceutically active compounds” (BERGENBIO ASA, priority 2015, dated 2019).

What was measured:
Assay type in all cases: biochemical
[1] = target: T1, Akt1 (Homo sapiens, UniProt P31749); assay: Akt activation assay (PDK1-mediated activation, LANCE Ultra crosstide TR-FRET), Akt1; details: read-out: Biological Assay 1 IC50 (nM) Akt1
T1 construct: unspecified tag, removed (detagged) (cleaved yes); purchased SignalChem and Proteros (Akt1); Merck Millipore (PDK1) 14-452 (PDK1); none given for Akt1
Description: (§1) Biological Assay 1: Akt Activation Assay
(§2) Addition of a Europium-labelled antibody specific to the phosphopeptide allows energy transfer from the Europium donor to the Ultra Ulight™ acceptor if close enough in proximity.
(§3) Full length active His6-tagged PDK1 was obtained from Merck Millipore (14-452).
(§4) 1× assay buffer (AB): 50 mM HEPES pH 7.5, 1 mM EGTA, 10 mM MgCl2, 0.01% Tween. Immediately before use, DTT to a concentration of 2 mM was added.
(§5) To prepare lipid vesicles: 1 mg/ml PtdIns(3,4,5)P3 solution (in 10 mM HEPES 7.5) was added to 16.7 mg/ml DOPS/DOPC mixture (in 10 mM HEPES pH 7.5) in a ratio of 1:8.3. MilliQ water was added to the solution to generate concentrations of 400 μM DOPS, 400 μM DOPC and 40 μM PtdIns(3,4,5)P3. The mixture was subjected to 5× freeze/thaw cycles and aliquots stored at −20° C.
(§6) 5 μL enzyme in 1×AB was incubated with 2.5 μL test compound. To start the reaction 2.5 μL reaction mix was added which consisted of PDK1, lipid preparations, crosstide and ATP in 1×AB. Final assay concentrations were as follows: 1% DMSO, 5 nM SignalChem Akt1/15 nM SignalChem Akt2/3 nM Signalchem Akt3/5 nM Proteros Akt1/5 nM proteros Akt2/5 nM Proteros Akt3, 5 nM PDK1, 5.5 μM DOPS, 5.5 μM DOPC, 0.55 μM PtdIns(3,4,5)P3, 100 μM ATP, 100 nM LANCE® Ultra Ulight™-Crosstide. After 30 min, the reaction was stopped using 5 μL 40 μM EDTA in 1× Detection buffer for 5 min. For detection, 5 μL 8 nM LANCE® Ultra Europium-anti-phospho-Crosstide antibody in 1× Detection buffer was added to each well and incubated for 1 h. Plates read with the EnVision® Multilabel Plate Reader, excitation at 320 nm and emission at 665 nm and 615 nm. Compound IC50 was determined using a 4-parameter equation.

[2] = target: T2, Akt2 (Homo sapiens, UniProt P31751); assay: Akt activation assay (PDK1-mediated activation, LANCE Ultra crosstide TR-FRET), Akt2; details: read-out: Biological Assay 1 IC50 (nM) Akt2
T2 construct: unspecified tag, removed (detagged) (cleaved yes); purchased SignalChem and Proteros (Akt2); Merck Millipore (PDK1) 14-452 (PDK1); none given for Akt2
Description: as §1, §2, §3, §4, §5, §6

[3] = target: T3, Akt3 (Homo sapiens, UniProt Q9Y243); assay: Akt activation assay (PDK1-mediated activation, LANCE Ultra crosstide TR-FRET), Akt3; details: read-out: Biological Assay 1 IC50 (nM) Akt3
T3 construct: unspecified tag, removed (detagged) (cleaved yes); purchased SignalChem and Proteros (Akt3); Merck Millipore (PDK1) 14-452 (PDK1); none given for Akt3
Description: as §1, §2, §3, §4, §5, §6

T1 sequence (P31749 whole entry): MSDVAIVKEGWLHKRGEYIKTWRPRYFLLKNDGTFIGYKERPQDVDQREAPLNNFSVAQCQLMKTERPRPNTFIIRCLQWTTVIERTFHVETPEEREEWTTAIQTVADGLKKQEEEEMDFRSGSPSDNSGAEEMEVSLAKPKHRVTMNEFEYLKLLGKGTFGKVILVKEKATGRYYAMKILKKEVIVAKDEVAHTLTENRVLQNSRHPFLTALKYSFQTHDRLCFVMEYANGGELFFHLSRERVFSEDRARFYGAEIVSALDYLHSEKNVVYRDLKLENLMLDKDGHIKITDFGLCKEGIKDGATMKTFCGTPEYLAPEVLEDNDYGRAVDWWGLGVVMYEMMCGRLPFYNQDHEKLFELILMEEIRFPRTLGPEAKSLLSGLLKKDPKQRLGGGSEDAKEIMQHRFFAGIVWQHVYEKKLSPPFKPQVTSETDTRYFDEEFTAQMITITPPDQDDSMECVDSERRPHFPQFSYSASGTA
T3 sequence (Q9Y243 whole entry): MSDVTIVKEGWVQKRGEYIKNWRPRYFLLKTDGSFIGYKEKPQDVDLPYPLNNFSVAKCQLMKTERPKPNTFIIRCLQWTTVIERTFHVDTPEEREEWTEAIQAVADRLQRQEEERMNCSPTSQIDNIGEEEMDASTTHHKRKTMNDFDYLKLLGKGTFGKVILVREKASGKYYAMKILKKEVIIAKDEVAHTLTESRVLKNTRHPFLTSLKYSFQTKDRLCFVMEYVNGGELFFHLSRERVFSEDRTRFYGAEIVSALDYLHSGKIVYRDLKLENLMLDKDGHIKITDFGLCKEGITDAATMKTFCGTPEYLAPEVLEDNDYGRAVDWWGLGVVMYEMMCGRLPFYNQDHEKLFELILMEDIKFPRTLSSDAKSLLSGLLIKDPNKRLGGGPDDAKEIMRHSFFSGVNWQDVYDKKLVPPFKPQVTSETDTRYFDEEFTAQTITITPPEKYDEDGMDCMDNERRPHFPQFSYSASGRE
T2 sequence (P31751 whole entry): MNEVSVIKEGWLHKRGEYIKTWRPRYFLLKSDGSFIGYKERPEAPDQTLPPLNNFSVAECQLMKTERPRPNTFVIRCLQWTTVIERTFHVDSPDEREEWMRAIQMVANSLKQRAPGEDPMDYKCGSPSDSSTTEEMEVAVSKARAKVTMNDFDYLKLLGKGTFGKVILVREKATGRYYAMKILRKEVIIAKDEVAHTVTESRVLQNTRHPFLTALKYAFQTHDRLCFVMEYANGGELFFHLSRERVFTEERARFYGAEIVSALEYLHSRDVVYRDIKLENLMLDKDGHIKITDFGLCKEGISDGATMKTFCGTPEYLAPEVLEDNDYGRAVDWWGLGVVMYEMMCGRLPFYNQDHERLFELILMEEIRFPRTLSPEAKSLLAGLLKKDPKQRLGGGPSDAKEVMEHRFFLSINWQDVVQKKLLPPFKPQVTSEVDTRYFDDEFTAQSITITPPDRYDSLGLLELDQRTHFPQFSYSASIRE

Q: For CC1(C(=O)N[C@H]2CC[C@H](CC(=O)Nc3cnc(-c4ccc(C(C)(C)N)cc4)c(-c4ccccc4)c3)CC2)CC1 [Example A21, N-(trans-4-(2-((6-(4-(2-aminopropan-2-yl)phenyl)-5-phenylpyridin-3-yl)amino)-2-oxoethyl)cyclohexyl)-1-methylcyclopropane-1-carboxamide], which IC50 [1] is on record?
A: > 37000 nM

Q: What about the IC50 [2] of the same compound?
A: 4100 nM

Q: And the IC50 [3]?
A: 55 nM

Q: What does the source list for CC(C)(C(=O)N[C@H]1CC[C@H](CC(=O)Nc2cnc(-c3ccc(C4(N)CCC4)cc3)c(-c3cccnc3)c2)CC1)C(F)(F)F [Example 20, N-(trans-4-(2-((2-(4-(1-aminocyclobutyl)phenyl)-[3,3′-bipyridin]-5-yl)amino)-2-oxoethyl)cyclohexyl)-3,3,3-trifluoro-2,2-dimethylpropanamide]?
A: IC50 [1]: > 30000 nM; IC50 [2]: > 15000 nM; IC50 [3]: 6800 nM

Q: Which results are given for CC(=O)N[C@H]1CC[C@H](CC(=O)Nc2cnc(-c3ccc(C4(N)COC4)cc3)c(-c3ccccc3)c2)CC1 [Example 14, 2-(trans-4-acetamidocyclohexyl)-N-(6-(4-(3-aminooxetan-3-yl)phenyl)-5-phenylpyridin-3-yl)acetamide]?
A: IC50 [1]: > 30000 nM; IC50 [2]: 1300 nM; IC50 [3]: 600 nM

Q: With CC(=O)N[C@H]1CC[C@H](CC(=O)Nc2cnc(-c3ccc([C@@H](C)N)cc3)c(-c3ccccc3)c2)CC1 [Example A9, 2-(trans-4-acetamidocyclohexyl)-N-(6-(4-((R)-1-aminoethyl)phenyl)-5-phenylpyridin-3-yl)acetamide] as the compound, how does the IC50 [2] read?
A: 400 nM

Q: And the IC50 [3]?
A: 80 nM

Q: Which results are given for C[C@]1(O)C[C@@](N)(c2ccc(-c3ncc(NC(=O)C[C@H]4CC[C@H](NC(=O)C(F)F)CC4)cc3-c3ccccc3)cc2)C1 [Example A5, N-(trans-4-(2-((6-(4-(trans-1-amino-3-hydroxy-3-methylcyclobutyl)phenyl)-5-phenylpyridin-3-yl)amino)-2-oxoethyl)cyclohexyl)-2,2-difluoroacetamide]?
A: IC50 [1]: 760 nM; IC50 [2]: 43 nM; IC50 [3]: 10 nM

Q: CC(=O)N(C)[C@H]1CC[C@H](CC(=O)Nc2cnc(-c3ccc([C@H](N)C(F)F)cc3)c(-c3ccccc3)c2)CC1 [Example 11, N-(6-(4-((S)-1-amino-2,2-difluoroethyl)phenyl)-5-phenylpyridin-3-yl)-2-(trans-4-(N-methylacetamido)cyclohexyl)acetamide] was tested. Which IC50 [1] did it give?
A: > 30000 nM

Q: What about the IC50 [2] of the same compound?
A: > 20000 nM

Q: What about the IC50 [3] of the same compound?
A: 630 nM

Q: Which IC50 [2] does the source give for C[C@@H](N)c1ccc(-c2ncc(NC(=O)C[C@H]3CC[C@H](NC(=O)C(C)(C)C(F)(F)F)CC3)cc2-c2ccccc2)cc1 [Example A11, N-(trans-4-(2-((6-(4-((R)-1-aminoethyl)phenyl)-5-phenylpyridin-3-yl)amino)-2-oxoethyl)cyclohexyl)-3,3,3-trifluoro-2,2-dimethylpropanamide] here?
A: 1500 nM

Q: What about the IC50 [3] of the same compound?
A: 880 nM

Q: How did the IC50 [1] turn out when CC(=O)N[C@H]1CC[C@H](CC(=O)Nc2cnc(-c3ccc(C4(N)CC(F)(F)C4)cc3)c(-c3ccccc3)c2)CC1 [Example 25, 2-(trans-4-acetamidocyclohexyl)-N-(6-(4-(1-amino-3,3-difluorocyclobutyl)phenyl)-5-phenylpyridin-3-yl)acetamide] was run?
A: 8300 nM

Q: What about the IC50 [2] of the same compound?
A: 270 nM

Q: And the IC50 [3]?
A: 170 nM

Q: Which results are given for CN(C(=O)CC(C)(C)C)[C@H]1CC[C@H](CC(=O)Nc2cnc(-c3ccc(C(C)(C)N)cc3)c(-c3ccccc3)c2)CC1 [Example A30, N-(trans-4-(2-((6-(4-(2-aminopropan-2-yl)phenyl)-5-phenylpyridin-3-yl)amino)-2-oxoethyl)cyclohexyl)-N,3,3-trimethylbutanamide]?
A: IC50 [1]: > 30000 nM; IC50 [2]: 16000 nM; IC50 [3]: 290 nM

Q: CC(C)(C(=O)N[C@H]1CC[C@H](CC(=O)Nc2cnc(-c3ccc(C4(N)COC4)cc3)c(-c3ccccc3)c2)CC1)C(F)(F)F [Example A6, N-(trans-4-(2-((6-(4-(3-aminooxetan-3-yl)phenyl)-5-phenylpyridin-3-yl)amino)-2-oxoethyl)cyclohexyl)-3,3,3-trifluoro-2,2-dimethylpropanamide] was tested. Which IC50 [1] did it give?
A: > 30000 nM

Q: What about the IC50 [2] of the same compound?
A: 1400 nM

Q: And the IC50 [3]?
A: 130 nM

Q: With CC(C)C(=O)N[C@H]1CC[C@H](CC(=O)Nc2cnc(-c3ccc(C(C)(C)N)cc3)c(-c3ccccc3)c2)CC1 [Example A22, N-(trans-4-(2-((6-(4-(2-aminopropan-2-yl)phenyl)-5-phenylpyridin-3-yl)amino)-2-oxoethyl)cyclohexyl)isobutyramide] as the compound, how does the IC50 [1] read?
A: > 30000 nM

Q: What about the IC50 [2] of the same compound?
A: 3500 nM

Q: And the IC50 [3]?
A: 68 nM

Q: With CC(=O)N[C@H]1CC[C@H](CC(=O)Nc2cnc(-c3ccc(C(C)(C)N)cc3)c(-c3ccsc3)c2)CC1 [Example A23, 2-(trans-4-acetamidocyclohexyl)-N-(6-(4-(2-aminopropan-2-yl)phenyl)-5-(thiophen-3-yl)pyridin-3-yl)acetamide] as the compound, how does the IC50 [1] read?
A: > 30000 nM

Q: What about the IC50 [2] of the same compound?
A: 22000 nM

Q: And the IC50 [3]?
A: 1900 nM

Q: With NC1(c2ccc(-c3ncc(NC(=O)C[C@H]4CC[C@H](NC(=O)C(F)F)CC4)cc3-c3ccccc3)cc2)CCC1 [Example A35, N-(trans-4-(2-((6-(4-(1-aminocyclobutyl)phenyl)-5-phenylpyridin-3-yl)amino)-2-oxoethyl)cyclohexyl)-2,2-difluoroacetamide] as the compound, how does the IC50 [1] read?
A: 9400 nM

Q: And the IC50 [2]?
A: 370 nM

Q: What about the IC50 [3] of the same compound?
A: 20 nM

Q: Which results are given for CN([C@H]1CC[C@H](CC(=O)Nc2cnc(-c3ccc(C4(N)CCC4)cc3)c(-c3ccccc3F)c2)CC1)S(C)(=O)=O [Example A16, N-(6-(4-(1-aminocyclobutyl)phenyl)-5-(2-fluorophenyl)pyridin-3-yl)-2-(trans-4-(N-methylmethylsulfonamido)cyclo-hexyl)acetamide]?
A: IC50 [1]: 9800 nM; IC50 [2]: 260 nM; IC50 [3]: 210 nM

Q: Which results are given for C[C@H](N)c1ccc(-c2ncc(NC(=O)C[C@H]3CC[C@H](NC(=O)C(C)(C)C(F)(F)F)CC3)cc2-c2ccccc2)cc1 [Example A10, N-(trans-4-(2-((6-(4-((S)-1-aminoethyl)phenyl)-5-phenylpyridin-3-yl)amino)-2-oxoethyl)cyclohexyl)-3,3,3-trifluoro-2,2-dimethylpropanamide]?
A: IC50 [1]: > 30000 nM; IC50 [2]: 18000 nM; IC50 [3]: 4600 nM

Q: Which IC50 [1] does the source give for C[C@@H]1CC(CC(=O)Nc2cnc(-c3ccc(C4(N)COC4)cc3)c(-c3ccccc3)c2)C[C@H](C)O1 (some centres unmarked) [Example 22, N-(6-(4-(3-aminooxetan-3-yl)phenyl)-5-phenylpyridin-3-yl)-2-((2r,6s)-2,6-dimethyltetrahydro-2H-pyran-4-yl)acetamide] here?
A: > 30000 nM

Q: And the IC50 [2]?
A: 2600 nM

Q: And the IC50 [3]?
A: 210 nM

Q: What does the source list for CC(C)(N)c1ccc(-c2ncc(NC(=O)C[C@H]3CC[C@H](NC(=O)C4CCC4)CC3)cc2-c2ccccc2)cc1 [Example A36, N-(trans-4-(2-((6-(4-(2-aminopropan-2-yl)phenyl)-5-phenylpyridin-3-yl)amino)-2-oxoethyl)cyclohexyl)cyclobutanecarboxamide]?
A: IC50 [1]: > 30000 nM; IC50 [2]: 6800 nM; IC50 [3]: 160 nM

Q: For CC(C)(C)C(=O)N[C@H]1CC[C@H](CC(=O)Nc2cnc(-c3ccc(C4(N)CC4)cc3)c(-c3ccccc3)c2)CC1 [Example A43, N-(trans-4-(2-((6-(4-(1-aminocyclopropyl)phenyl)-5-phenylpyridin-3-yl)amino)-2-oxoethyl)cyclohexyl)pivalamide], which IC50 [1] is on record?
A: > 22000 nM

Q: And the IC50 [2]?
A: 520 nM

Q: And the IC50 [3]?
A: 300 nM

Q: Which results are given for NC1(c2ccc(-c3ncc(NC(=O)C[C@H]4CC[C@H](NC(=O)C5CC5)CC4)cc3-c3ccccc3)cc2)CCC1 [Example A39, N-(trans-4-(2-((6-(4-(1-aminocyclobutyl)phenyl)-5-phenylpyridin-3-yl)amino)-2-oxoethyl)cyclohexyl)cyclopropane-carboxamide]?
A: IC50 [1]: 3100 nM; IC50 [2]: 140 nM; IC50 [3]: 15 nM

Q: With CC(=O)N[C@H]1CC[C@H](CC(=O)Nc2cnc(-c3ccc([C@]4(N)C[C@@H](O)C4)cc3)c(-c3ccccc3)c2)CC1 [Example 13, 2-(trans-4-acetamidocyclohexyl)-N-(6-(4-(trans-1-amino-3-hydroxycyclobutyl)phenyl)-5-phenylpyridin-3-yl)acetamide] as the compound, how does the IC50 [2] read?
A: 480 nM

Q: And the IC50 [3]?
A: 220 nM

Q: How did the IC50 [1] turn out when CC(C)(C)C(=O)N[C@H]1CC[C@H](CC(=O)Nc2cnc(-c3ccc(C(C)(C)N)cc3)c(-c3ccccc3)c2)CC1 [Example A34, N-(trans-4-(2-((6-(4-(2-aminopropan-2-yl)phenyl)-5-phenylpyridin-3-yl)amino)-2-oxoethyl)cyclohexyl)pivalamide] was run?
A: > 30000 nM

Q: What about the IC50 [3] of the same compound?
A: 160 nM
